Reference: patent EP2245032B1, “FOLATES, COMPOSITIONS AND USES THEREOF” (priority 2008, dated 2009)
Where a name gives a salt, the structure may show the parent alone.

What was measured:
[1] = Stability of the powder in sealed aluminium foil bag, purity and titre by HPLC after 6 and 12 months; type: physicochemical; settings: airtight container, protected from light; for Starting values Purity / Starting values Titre: start
Experimental: The stability of the compounds listed in the following table, under powder form and in sealed aluminium foil bag, was tested, keeping the samples in airtight container, protected from light and measuring the purity and the titre thereof after 6 and 12 months.
In particular, the stability of the acid moiety was observed by HPLC, detecting the purity and titre thereof.

[2] = after twelve months; US 6,441,168 (Example 1); 525600 min; cited from earlier work
[3] = general knowledge stated in the introduction; cited from earlier work

Structure (SMILES) | After 6 months Purity [1] | After 6 months Titre [1] | After 12 months Purity [1] | After 12 months Titre [1] | Starting values Purity [1] | Starting values Titre [1] | titre decrease [2] | solubility in water (in words) [3]
CN1c2c(nc(N)[nH]c2=O)NCC1CNc1ccc(C(=O)NC(CCC(=O)O)C(=O)O)cc1 [D-GLU (6S)-5-MTHF, D-glucosamine 5-methyl-(6S)-tetrahydrofolate] | 99.0 | 55.4 | 98.5 | 55.1 | 99.3 | 55.7 | – | –
CN1c2c(nc(N)[nH]c2=O)NCC1CNc1ccc(C(=O)NC(CCC(=O)O)C(=O)O)cc1 [5-methyl-(6S)-tetrahydrofolic acid calcium salts] | – | – | – | – | – | – | about 1% | –
Nc1nc2ncc(CNc3ccc(C(=O)N[C@@H](CCC(=O)O)C(=O)O)cc3)nc2c(=O)[nH]1 [D-GAL folate, D-galactosamine L-folate] | 99.1 | 54.5 | 98.7 | 54.2 | 99.2 | 54.8 | – | –
Nc1nc2ncc(CNc3ccc(C(=O)N[C@@H](CCC(=O)O)C(=O)O)cc3)nc2c(=O)[nH]1 [D-GLU folate, D-glucosamine L-folate] | 98.8 | 54.3 | 98.7 | 54.0 | 99.1 | 54.6 | – | –
CN1c2c(nc(N)[nH]c2=O)NCC1CNc1ccc(C(=O)N[C@@H](CCC(=O)O)C(=O)O)cc1 (stereo partly drawn) [D-GAL (6R,S)-5-MTHF, D-galactosamine 5-methyl-(6R,S)-tetrahydrofolate] | 98.9 | 55.2 | 98.7 | 55.3 | 99.1 | 55.5 | – | –
CN1c2c(nc(N)[nH]c2=O)NCC1CNc1ccc(C(=O)N[C@@H](CCC(=O)O)C(=O)O)cc1 (stereo partly drawn) [D-GLU 5-MTHF, D-glucosamine 5-methyl-(6R,S)-tetrahydrofolate] | 98.9 | 55.0 | 99.0 | 54.8 | 99.1 | 55.2 | – | –
Nc1nc2ncc(CNc3ccc(C(=O)N[C@@H](CCC(=O)O)C(=O)O)cc3)nc2c(=O)[nH]1 [Folic acid, N-[4-[[(2-amino-1,4-dihydro-4-oxo-6-pteridinyl)methyl]amino]benzoyl]-L-glutamic acid] | – | – | – | – | – | – | – | very slightly soluble in water
